Assay results from ChEMBL document CHEMBL3137667, “[Drug-induced liver injury; fourteenth updated edition of the bibliographic database of liver injuries and related drugs]” (Gastroenterol Clin Biol, 2004).

Assays:
[1] = human
[2] = human; remark: listed apart in the source
[3] = human; remark: listed apart in the source
[4] = Highest frequency of acute liver toxicity observed during clinical trials, expressed as a percentage. [column '% AIGUE' in source]; details: human
[5] = human; remark: listed apart in the source
[6] = human, serum
[7] = human; remark: listed apart in the source
[8] = human; remark: listed apart in the source
[9] = human, serum; remark: listed apart in the source
[10] = human; remark: listed apart in the source
[11] = human; remark: listed apart in the source
[12] = human; remark: listed apart in the source
[13] = human, serum, 4383 h
[14] = Highest frequency of moderate liver toxicity observed during clinical trials, expressed as a percentage. [column '% BIOL' in source]; details: human
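Wherever Hepatotoxicity (association with vascular disease) is given: count of indexed literature references reporting vascular liver injury in humans, e.g. peliosis hepatitis, hepatic veno-occlusive disease or Budd-Chiari syndrome.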
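Wherever Hepatotoxicity (benign tumour) is given: value is a count of indexed literature references citing a benign tumour confirmed by histopathology.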
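Wherever Hepatotoxicity (choleostasis) is given: human cholestatic liver injury, shown by histopathology or by peak ALT or AST elevation over alkaline phosphatase ratio below 2, value counts indexed literature reports.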
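Wherever Hepatotoxicity (chronic liver disease) is given: chronic liver injury confirmed by histopathology or persistently raised serum aminotransferase activity beyond 6 months, value given as the count of indexed literature references.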
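Wherever Hepatotoxicity (cirrhosis) is given: value is a count of indexed literature references reporting cirrhosis confirmed by histopathology.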
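Wherever Hepatotoxicity (cytolytic) is given: human cytolytic liver injury, shown by histopathology or by a ratio above 5 of peak ALT or AST elevation to alkaline phosphatase elevation, value counts indexed references.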
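Wherever Hepatotoxicity (granulomatous hepatitis) is given: value is a count of indexed literature references reporting granulomatous liver disease confirmed by histopathology.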
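Wherever Hepatotoxicity (malignant tumour) is given: malignant tumour confirmed by histopathology, value gives the count of indexed literature references reporting it.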
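Wherever Hepatotoxicity (severe hepatitis) is given: human clinical data: severe hepatitis, meaning potentially life-threatening liver failure or clinically observed cases, the value counts how many indexed literature references report it.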
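Wherever Hepatotoxicity (steatosis) is given: steatosis confirmed by histopathology, value is the count of indexed references.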

| Compound | Hepatotoxicity (granulomatous hepatitis) [1] | Hepatotoxicity (severe hepatitis) [2] | Hepatotoxicity (cirrhosis) [3] | Hepatotoxicity (acute) [4] [%] | Hepatotoxicity (malignant tumour) [5] | Hepatotoxicity (acute) [6] | Hepatotoxicity (steatosis) [7] | Hepatotoxicity (choleostasis) [8] | Hepatotoxicity (moderate) [9] | Hepatotoxicity (benign tumour) [10] | Hepatotoxicity (cytolytic) [11] | Hepatotoxicity (association with vascular disease) [12] | Hepatotoxicity (chronic liver disease) [13] | Hepatotoxicity (moderate) [14] [%] | Hepatotoxicity (severe hepatitis) ([2]; Liver) | Hepatotoxicity (acute) ([4]; Liver) [%] | Hepatotoxicity (moderate) ([14]; Liver) [%] |
| --- | --- | --- | --- | --- | --- | --- | --- | --- | --- | --- | --- | --- | --- | --- | --- | --- | --- |
| CCOC(=O)[C@H](CCc1ccccc1)N[C@@H](C)C(=O)N1Cc2ccccc2C[C@H]1C(=O)O | 0 | 0 | 0 | 0 | 0 | 1 | 0 | 0 | 3 | 0 | 0 | 0 | 0 | 10 |  |  |  |
| CO/N=C(\C(=O)N[C@@H]1C(=O)N2C(C(=O)[O-])=C(C[N+]3(C)CCCC3)CS[C@H]12)c1csc(N)n1 | 0 |  | 0 |  | 0 | 0 | 0 | 0 | 52 | 0 | 0 | 0 | 0 |  | 0 | 0 | 37.5 |
| O=[N+]([O-])c1ccc(O)c([N+](=O)[O-])c1 [2,4-DINITROPHENOL] | 0 | 2 | 0 | 0 | 0 | 3 | 0 | 0 | 0 | 0 | 0 | 0 | 0 | 0 |  |  |  |
| COCc1c(C(=O)OC(C)C)ncc2[nH]c3ccc(OCc4ccccc4)cc3c12 [ABECARNIL] | 0 | 0 | 0 | 0 | 0 | 0 | 0 | 0 | 1 | 0 | 0 | 0 | 0 | 8 |  |  |  |
| N[C@H](C(=O)O)[C@@H]1CC(Cl)=NO1 [ACIVICIN] | 0 | 0 | 0 | 0 | 0 | 0 | 0 | 0 | 3 | 0 | 0 | 0 | 0 | 62 |  |  |  |
| Nc1nc2c(ncn2COCCO)c(=O)[nH]1 [ACYCLOVIR] | 0 |  | 0 |  | 0 | 1 | 0 | 0 | 18 | 0 | 1 | 0 | 0 |  | 0 | 1.9 | 50 |
| Nc1ncnc2c1ncn2CCOCP(=O)(O)O [ADEFOVIR] | 0 | 0 | 0 | 7.4 | 0 | 1 | 0 | 0 | 2 | 0 | 1 | 0 | 0 | 33.3 |  |  |  |
| CC(N)C(=O)OC(C)(C)Cc1ccc(Cl)cc1 (centres undefined) [ALAPROCLATE] | 0 | 0 | 0 | 0 | 0 | 0 | 0 | 0 | 1 | 0 | 0 | 0 | 0 | 0 |  |  |  |
| O=C(O)CN1C(=O)c2cccc3cccc(c23)C1=O [ALRESTATIN] | 0 | 0 | 0 | 0 | 0 | 0 | 0 | 0 | 2 | 0 | 0 | 0 | 0 | 11.1 |  |  |  |
| CC(C)(C)C(=O)OCOC(=O)[C@@H]1N2C(=O)[C@@H](/N=C/N3CCCCCC3)[C@H]2SC1(C)C [AMDINOCILLIN PIVOXIL] | 0 | 0 | 0 | 0 | 0 | 0 | 0 | 0 | 1 | 0 | 0 | 0 | 0 | 17.2 |  |  |  |
| CNn1cc(C(=O)O)c(=O)c2cc(F)c(N3CCN(C)CC3)cc21 [AMIFLOXACIN] | 0 |  | 0 |  | 0 | 1 | 0 | 0 | 1 | 0 | 1 | 0 | 0 |  | 0 | 1.7 | 5 |
| NCC[C@H](O)C(=O)N[C@@H]1C[C@H](N)[C@@H](O[C@H]2O[C@H](CN)[C@@H](O)[C@H](O)[C@H]2O)[C@H](O)[C@H]1O[C@H]1O[C@H](CO)[C@@H](O)[C@H](N)[C@H]1O [AMIKACIN] | 0 | 0 | 0 | 0 | 0 | 0 | 0 | 0 | 6 | 0 | 0 | 0 | 0 | 15.3 |  |  |  |
| CN(C)CCN1C(=O)c2cccc3cc(N)cc(c23)C1=O [AMONAFIDE] | 0 | 0 | 0 | 0 | 0 | 0 | 0 | 0 | 5 | 0 | 0 | 0 | 0 | 44 |  |  |  |
| CC(C)(C#N)c1cc(Cn2cncn2)cc(C(C)(C)C#N)c1 [ANASTROZOLE] | 0 | 0 | 0 | 0 | 0 | 0 | 0 | 0 | 1 | 0 | 0 | 0 | 0 | 0 |  |  |  |
| O=c1n(CC2CO2)c(=O)n(CC2CO2)n1CC1CO1 (centres undefined) [ANAXIRONE] | 0 | 0 | 0 | 0 | 0 | 0 | 0 | 0 | 1 | 0 | 0 | 0 | 0 | 0 |  |  |  |
| Cc1cc(=O)n(-c2ccccc2)n1C [ANTIPYRINE] | 0 | 0 | 0 | 0 | 0 | 1 | 0 | 1 | 0 | 0 | 0 | 0 | 0 | 0 |  |  |  |
